Source: patent US20160029628A1, “COMPOUNDS, COMPOSITIONS, AND METHODS FOR REPELLING AN INSECT FROM AN AREA,ARTICLE, AND/OR STRUCTURE” (BAYER CROPSCIENCE LP, priority 2013, published 2016)

Columns and labels:
[1] = test system: honeybees; assay: Honeybee repellency at feeding stations, repellent in 50% sucrose solution; assay type: in vivo
Procedure: FIG. 1 describes the feeding station arrangement (A and B) for the honeybee repulsion experiments described herein. As set forth in FIG. 1, panel (A) sets forth the bee cage positions on the left portion of panel (A) with the randomized feeding station positions on the right portion of panel (A). Panel (B) sets forth an alignment of the randomized feeding station positions with a distance of two meters between feeding stations. A total of eight feeding stations were evaluated at a ten meter distance in front of the respective bee hives. The feeding stations were placed two meters apart from one another.
Honeybees were trained to deep feeders (eight positions), each containing a 50% sucrose solution for one day. After the honeybees were trained to each feeder, the 50% sucrose feeder at randomized positions 1-8 was replaced with a shallow feeder containing a combination of repelling compounds and a 50% sucrose solution according to Table 3. In accordance with FIGS. 5 and 6, 2% by weight of Camphor oil (T4), Ajowan oil (T5), Camphor powder (T6), Rosemary oil (T7), and 2-Decanone (T8) in combination with a 50% sucrose treatment were added to feeders on day two.
Table 3 describes active agents evaluated for bee repulsion and their randomized feeding station positions. As described in Table 3, T1 (control), T2 (control), T3 (control), T4 (Camphor oil), T5 (Ajowan oil), T6 (Camphor powder), T7 (Rosemary oil), and T8 (2-Decanone).
FIG. 5 evaluates the number of bees visiting a respective feed station over a time interval. FIG. 6 sets forth the mean number of honeybees visiting feeding station over a period of four hours.

[2] = Stability test of Poncho 600 with α-terpineol, clothianidin content by HPLC; assay type: physicochemical; conditions: combined with alpha-terpineol; up to 54° C. for eight days
Procedure: Table 5 describes a stability test with a combination of α-terpineol and Poncho 600 evaluated at room temperature, 40° C., and 54° C. at zero time, 2 days, and 8 days as confirmed by HPLC.

[3] = Stability test of Poncho 600 with Eugenol, clothianidin content by HPLC; assay type: physicochemical; conditions: combined with Eugenol; up to 54° C. for seven days
Procedure: Table 4 describes a stability test with a combination of Eugenol and Poncho evaluated at room temperature, 40° C., and 54° C. at zero time, 3 days, and 7 days as confirmed by high performance liquid chromatography (HPLC).

CCCCCCCCC(C)=O [Compound 2-decanone, 2-decanone]
repellency over the full 4 hour assessment period ([1]; 2% by weight with 50% sucrose, 4 hours): highly repellent
repellency at 24 hours ([1]; 2% by weight with 50% sucrose): still repellent
repellency at 24 hours ([1]; 2% by weight with 50% sucrose, listed as 2-Decanone): exhibited repellency
repellent effect relative to comparators ([1]; relative to camphor oil, ajowan oil, camphor powder, or rosemary oil, FIGS. 5-6): larger repellent effect

CN/C(=N\[N+](=O)[O-])NCc1cnc(Cl)s1 [clothianidin]
chemical stability of clothianidin content [2]: exhibited chemical stability
chemical stability of clothianidin content [3]: exhibited chemical stability
